Source: patent publication US8841420B2, “Synthetic peptide constructs for the diagnosis and treatment of periodontis associated with Porphyromonas gingivalis” (priority 1997, dated 2014)
No end group written: not given here.

How the values were obtained:
[1] = molecular target: T1, PrtRII50 Arg-specific proteinase (Porphyromonas gingivalis, UniProt P95493); assay type: biochemical, Porphyromonas gingivalis W50; settings: inhibition at similar concentrations to that which inhibited the PrtR45
T1 construct: made in house; host or cells: Porphyromonas gingivalis W50 (native enzyme purified from cell sonicate, not recombinant)
Procedure: P. gingivalis W50 was grown in batch culture (5 L) and harvested at late logarithmic phase by centrifugation (5,000×g, 20 min, 4° C.). Cells were washed once with 150 ml TC buffer (20 mM Tris-HCl pH 7.4 and 5 mM CaCl2) containing 50 mM NaCl and sonicated as described previously (Bhogal et al., 1997). The sonicate was centrifuged (100,000×g, 30 min, 4° C.) and the supernatant filtered (0.22 μm) prior to anion-exchange FPLC. The sonicate was applied to an anion-exchange column (Hiload XK 16/10 Q Sepharose, Pharmacia-LKB) cooled to 4° C., in multiple injections using a 50 ml superloop (Pharmacia-LKB). The sonicate was eluted using a linear gradient from 0-100% buffer B over 90 min at a flow rate of 2.0 ml min^−1. Absorbance was monitored at 280 nm and elutant collected at 4° C. in 6 ml fractions using a Frac 100 fraction collector (Pharmacia-LKB). Buffer A was TC buffer containing 50 mM NaCl and buffer B was TC buffer containing 500 mM NaCl. Fractions were analysed for proteolytic and amidolytic activity using azocasein (A-2765, Sigma Chemical Co. St Louis, Mo.), benzoyl-L-Arg-p-nitroanilide (Bz-L-Arg-pNA, Sigma) and benzyloxycarbonyl-L-Lys-p-nitroanilide (z-L-Lys-pNA, Calbiochem, Melbourne, Australia) as described previously (Bhogal et al., 1997) except that fractions were pre-incubated with 10 mM cysteine for 10 min at 25° C. before the addition of substrate. For the amidolytic assays absorbance was monitored at 410 nm as previously described (Bhogal et al., 1997) and the amidolytic activity expressed as U where U=μmol substrate converted min^−1 at 25° C. Anion-exchange fractions eluting between 160-246 mM NaCl containing the highest ratio of Arg-specific to Lys-specific activity were, washed and concentrated in TC buffer containing 150 mM NaCl using a centripep and centricon 10 concentrators (Amicon) and applied to a gel filtration column (Superose 12, HR 10/30, Pharmacia-LKB) using TC buffer containing 150 mM NaCl at a flow rate of 0.3 ml min^−1. Absorbance was monitored at 280 nm and fractions collected at 4° C. using a Frac 100 fraction collector. The Mr values of eluant peaks were determined using gel filtration molecular mass standards (Pharmacia-LKB). The peak eluting at 50 kDa containing only Arg-specific amidolytic activity was washed in TC buffer containing 50 mM NaCl using a centricon-10 concentrator (Amicon) and applied to a Mono Q (HR 5/5) anion-exchange column using a 5 ml loop and eluted using a linear gradient of 0-100% buffer B at a flow rate 1.0 ml min^−. Buffer A was TC buffer containing 150 mM NaCl, buffer B was TC buffer containing 500 mM NaCl. Absorbance was monitored at 280 nm and fractions collected at 4° C. using a Frac 100 fraction collector.

[2] = system: Porphyromonas gingivalis strain 33277; assay: Murine lesion (abscess) model, immunisation then P. gingivalis challenge; assay type: in vivo, BALB/c mice; settings: for Maximum lesion size: BALB/c mice immunised s.c. with 50 μg antigen (or 2×10^9 killed cells) in CFA then IFA, s.c. challenge 8×10^9 cells, measured over 10 days; for protection against P. gingivalis challenge (lesion size), in words: relative to DT or adjuvant alone controls
Procedure: BALB/c mice (6 per group) were inoculated (s.c.) with 50 μg of antigen emulsified in CFA and IFA for the primary and secondary inoculations and then challenged (s.c.) with 8×10^9 cells of P. gingivalis strain 33277.
BALB/c mice 6-8 weeks old were immunised subcutaneously with either 50 μg of the peptide-DT conjugate, 50 μg of DT or 2×10^9 formalin killed cells of Porphyromonas gingivalis strain 33277 emulsified in complete Freund's adjuvant (CFA). After 30 days the mice were injected subcutaneously with antigen (either 50 μg of the peptide-DT conjugate, 50 μg of DT or 2×10^9 formalin killed cells of Porphyromonas gingivalis strain 33277) emulsified in incomplete Freund's adjuvant (IFA) and then bled from the retrobulbar plexus 12 days later. All mice were challenged with 8×10^9 cells of P. gingivalis (200 μL) by subcutaneous injection in the abdomen and weighed and lesion size measured over 10 days. Lesion sizes are expressed as mm^2 and were statistically analysed using a Kruskal-Wallis one-way ANOVA and Mann-Whitney U-Wilcoxon rank sum W test.

[3] = system: TLCK-inactivated PrtR-PrtK proteinase-adhesin complex; assay: Competitive binding assay (ELISA, ABM peptide-coated plates); parameters: species or system Porphyromonas gingivalis W50; settings: for inhibition of binding of the TLCK-inactivated PrtR-PrtK complex to the adsorbed ABM peptide: competitor in solution; for binding of the PrtR-PrtK complex to the substance: TLCK-inactivated complex
Procedure: Competitive Binding Assay
Wells of flat-bottomed polyvinyl microtitre plates (Microtitre, Dynatech Laboratories, VA) were coated overnight at 4° C. using a solution (5 mg/ml) of the adhesin binding motif (ABM) peptide in 0.1M phosphate buffered saline, pH 7.4, containing 0.1% v/v Tween 20 (PBST) and 0.1% w/v sodium azide. After removal of the coating solution, 2% w/v skim milk powder in PEST was added to block the remaining uncoated plastic for 1 hour at room temperature and then washed (4×PBST). A solution (1 mg/ml) of the PrtR-PrtK proteinase-adhesion complex (inactivated with 1 mM TLCK) was incubated with known concentrations of ABM peptide, control peptide and casein for 1 hour and then transferred to the microtitre plates coated with the ABM peptide. Following incubation for 2 hours at 37° C. the plates were washed (5×PBST). A 1/10,000 dilution of rabbit anti-PrtR-PrtK antisera in PBST containing 1% w/v skim milk powder was then added to the washed wells and incubated for 2 hours at 37° C. Bound antibody was detected by incubation with horseradish peroxidase-conjugated goat immunoglobulin (Ig) directed against rabbit Ig (BioRad, Richmond, Calif.) for 1.5 hours at 37° C. After washing (5×PBST), substrate (0.4 mM 3,3′,5,5′-tetramethylbenzidine in 0.1M sodium acetate/citric acid buffer containing 0.004% v/v hydrogen peroxide) was added and colour development was stopped by addition of 2M H2SO4. Optical density (O.D.) at 450 nm was measured using a BioRad microplate reader model 450.

T1 sequence (P95493 230-736): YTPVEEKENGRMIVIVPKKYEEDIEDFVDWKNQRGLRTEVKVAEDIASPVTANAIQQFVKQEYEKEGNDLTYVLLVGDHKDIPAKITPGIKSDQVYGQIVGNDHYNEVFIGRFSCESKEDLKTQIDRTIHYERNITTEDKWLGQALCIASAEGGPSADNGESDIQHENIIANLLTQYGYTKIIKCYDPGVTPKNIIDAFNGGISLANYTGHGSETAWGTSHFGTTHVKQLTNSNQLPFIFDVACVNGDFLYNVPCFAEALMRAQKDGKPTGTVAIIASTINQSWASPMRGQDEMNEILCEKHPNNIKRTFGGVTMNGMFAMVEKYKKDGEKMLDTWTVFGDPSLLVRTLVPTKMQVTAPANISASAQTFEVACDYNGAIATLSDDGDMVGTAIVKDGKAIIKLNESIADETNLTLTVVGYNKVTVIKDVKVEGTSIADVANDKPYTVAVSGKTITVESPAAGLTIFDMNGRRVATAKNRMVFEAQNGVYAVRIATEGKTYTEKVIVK

NCCc1ccc(S(=O)(=O)F)cc1 [4-(2-aminoethyl)-benzenesulfonyl fluoride]
effect on activity of the Arg-specific 50 kDa enzyme [1]: not inhibited

O=C(O)CN(CCN(CC(=O)O)CC(=O)O)CC(=O)O [EDTA]
effect on activity of the Arg-specific 50 kDa enzyme [1]: inhibited

N[C@@H](CS)C(=O)O [cysteine]
effect on activity of the Arg-specific 50 kDa enzyme [1]: activated

CC(=O)N[C@@H](CC(C)C)C(=O)N[C@@H](CC(C)C)C(=O)N[C@H](C=O)CCCNC(=N)N [leupeptin]
effect on activity of the Arg-specific 50 kDa enzyme [1]: inhibited

O=S(=O)(F)Cc1ccccc1 [phenylmethyl sulfonyl fluoride]
effect on activity of the Arg-specific 50 kDa enzyme [1]: not inhibited

ABM3 (K44)-OT: ABM3 (R44) peptide (SEQ ID NO: 98) conjugated to diphtheria toxoid (VTLKWDAPNGTPNPNPNPNPNPNPGTTTLSESF-NH2; not fully specified (N-terminus); also: conjugated to diphtheria toxoid; listed as Porphyromonas gingivalis)
Maximum lesion size [2]: 12.27 mm^2

ABM4 (K44)-DT: ABM4 (K44) peptide (SEQ ID NO: 35) conjugated to diphtheria toxoid (WIERTVDLPAGTKYVAFRHY-NH2; not fully specified (N-terminus); also: conjugated to diphtheria toxoid; listed as Porphyromonas gingivalis)
Maximum lesion size [2]: 18.83 mm^2

ABM5 (R15)-DT: ABM5 (R15) peptide (SEQ ID NO: 50) conjugated to diphtheria toxoid (PAEWTTIDADGDGQGW-NH2; not fully specified (N-terminus); also: conjugated to diphtheria toxoid; listed as Porphyromonas gingivalis)
Maximum lesion size [2]: 14.79 mm^2

Control peptide-DT: Control peptide PrtR27 (1432-1463) (SEQ ID NO: 97) conjugated to diphtheria toxoid (ANEAKVVLAADNVWGDNTGYQFLLDADHNTFG; also: conjugated to diphtheria toxoid; listed as Porphyromonas gingivalis) [reference compound]
Maximum lesion size [2]: 36.61 mm^2
protection against P. gingivalis challenge (lesion size), in words [2]: did not provide protection

Diphtheria Toxoid [DT, reference compound]
Maximum lesion size [2]: 33.59 mm^2
protection against P. gingivalis challenge (lesion size), in words [2]: does not provide protection

FNGGISLANYTGHGSETAWGT (listed as Porphyromonas gingivalis) [PAS1 (R45)]
inhibition of binding of the TLCK-inactivated PrtR-PrtK complex to the adsorbed ABM peptide ([3]; FIG. 10): did not inhibit

PAS1 (R45)-DT: PAS1 (R45) peptide (SEQ ID NO: 1) conjugated to diphtheria toxoid (FNGGISLANYTGHGSETAWGT; also: conjugated to diphtheria toxoid; listed as Porphyromonas gingivalis)
Maximum lesion size [2]: 10.46 mm^2
protection against P. gingivalis challenge (lesion size), in words [2]: Significantly reduced lesion size

PYQPVSNLTATTQGQKVTLKWDAPSTK [ABM1 (R45)]
molar excess of peptide in solution required to inhibit binding of the complex to the ABM peptide adsorbed onto the microtitre plate ([3]; TLCK-inactivated PrtR-PrtK complex 1 mg/ml, FIG. 10): 5-100 fold
binding of the PrtR-PrtK complex to the substance [3]: Specific binding

casein [reference compound]
binding of the PrtR-PrtK complex to the substance [3]: lack of binding
inhibition of binding of the TLCK-inactivated PrtR-PrtK complex to the adsorbed ABM peptide ([3]; FIG. 10): did not inhibit
